In PMC7287031 (Pharmacology Research & Perspectives, 2020):
Like-named read-outs stand apart in the source and are kept apart here.

Columns and labels:
[1] = Dog pharmacokinetic studies: plasma PK of ribociclib after single i.v. or oral dose; type: in vivo; settings: male; for half-life: read-out: t½ (converted)
Description: ADME studies (including QWBA in pigmented and non‐pigmented rats) using radiolabeled ribociclib were conducted in rat and dog. Relevant institutional and national guides for the care and use of laboratory animals were followed. […]

[2] = Human ADME study: quantitative metabolite profiling in urine and feces; type: in vivo; settings: pooled excreta n=6, from metabolite patterns (radio profiling)
Description: Average pools across the six subjects were also created by combining equal percentages (of total urine and feces excreted over the time interval) of the individual subject pools. Urine pools were analyzed directly for metabolite profiling (column recovery of a representative sample was measured), whereas feces pools were subjected to extraction. Specifically, to each aliquot of feces homogenate, two volumes of acetonitrile were added. After centrifugation, the pellet was washed further with an additional two volumes of acetonitrile. […] All washes were combined, evaporated under nitrogen, and reconstituted with a solution of 15‐mM ammonium formate (pH 3.5). This feces extract reconstitute was analyzed for metabolite profiling. Combined extraction and reconstitution (overall recovery) and column recovery were measured. […] The HPLC column used was a Phenomenex Kinetex, C18, 250 × 4.6 mm, equipped with a pre‐column of the same type (2.1 × 4.6 mm), which was placed in a column oven at 40°C. […] The HPLC gradient was as follows: initial conditions were 5% mobile phase B for 1 minute, then increased to 20% at 10 minutes post injection where it was held (isocratic) up to 20 minutes. […] The post column flow was directed to the fraction collector operated in a time‐slice mode and containing 96‐well Lumaplates (Perkin Elmer). The plates were dried at room temperature and the radioactivity was measured using a microplate scintillation counter model TopCount NXT (Perkin Elmer) instrument (up to 3 × 100‐minute counting time). […] Metabolites were identified during the same injections using data generated by the high‐resolution mass spectrometer. The molecular ions and key fragments of each drug‐related component were determined. Key fragments for each metabolite were derived from their product ion mass spectra and were used to determine the metabolite structures. Where possible, structural assignments were supported by exact mass measurement, comparison with synthetic standards and/or Hydrogen/Deuterium (H/D) exchange LC‐MS(/MS).

[3] = Human ADME study: quantitative metabolite profiling in plasma; type: in vivo; settings: human plasma pools n=6, from metabolite patterns
Description: A plasma pool across the six healthy volunteers included in the study was prepared at the time points of 1 hour, 3 hours, 24 hours, and 48 hours post dose. For each time point, an equal volume of plasma was taken from each subject and combined. Plasma pool samples were processed by protein precipitation with acetonitrile. The protein pellet that resulted from precipitation with acetonitrile was washed further with additional aliquots of acetonitrile. All acetonitrile washes were combined and evaporated under nitrogen. For the 3‐ and 24‐hour plasma pools, the extraction procedure was slightly modified, including precipitation of the plasma proteins by addition of a 1:1 mixture of acetonitrile:methanol, followed by washing of the protein pellet with the same solvent mixture. All extracts were reconstituted with a solution of 15‐mM ammonium formate and acetonitrile (95:5 v/v). Extraction and reconstitution recoveries were measured in all four plasma samples in order to calculate and overall recovery. Quantitative metabolite profiling in plasma was accomplished using a Shimadzu Prominence high‐performance liquid chromatography (HPLC) system (Shimadzu, Columbia, MD, USA), coupled with fraction collection and analysis of total radioactivity in individual fractions using AMS (as described above). A second injection of each sample, conducted immediately after the first, was used to provide HPLC fractions for metabolite identification. The fractions identified as containing radioactivity from the AMS analysis were analyzed by HPLC coupled with high‐resolution mass spectrometry to identify the metabolites. The HPLC‐MS/MS methodology used is described below.

[4] = Kinetic analysis of ribociclib metabolite formation in HLM and enzyme contribution; type: in vitro ADME, human; settings: both sexes, human, pooled human liver microsomes, pH 7.4; HLM, sum of metabolite formation; read-out: CLint, Total of all pathways
Description: (§1) In vitro incubations were carried out in 100‐mM potassium phosphate buffer (pH 7.4) and 5‐mM MgCl2 with a total volume of 200 µL. Substrate and either human liver microsomes (HLM, BD Biosciences, mixed gender pool of n = 50) or recombinant human enzymes (BD Biosciences) were added and pre‐incubated for 3 minutes at 37°C. The reaction was started by addition of a fresh solution of NADPH (1 mmol/L final concentration). The samples were incubated at 37°C with agitation of 500 rpm. For incubations with CYP2A6, CYP2C9, CYP2C18, and CYP4A11, the phosphate buffer was replaced by TRIS buffer (100 mmol/L, pH 7.4) and for flavin‐containing monooxygenases (FMOs), a glycine buffer (50 mM, pH 9.5) was used.
(§2) The enzymatic reaction was stopped and the protein was precipitated by addition of an equal volume of methanol. […] The supernatant was withdrawn. Aliquots were analyzed by LSC and the supernatant was diluted with water to obtain a final solution containing less than 20% of the organic solvent. For samples of low substrate concentration, supernatants were evaporated to dryness under nitrogen, then re‐suspended in water containing less than 20% of methanol. Samples were analyzed by HPLC combined with radiodetection.
(§3) Km and Vmax parameters were calculated by using SigmaPlot Version 8.0, Enzyme Kinetics module Version 1.1 software (SPSS Science Inc, Chicago, IL, USA). The intrinsic clearance was calculated by the equation: CLint = Vmax/Km.
(§4) The intrinsic clearances (Vmax/Km) of each pathway were determined by enzyme kinetics.

FMO3 = test: as above; type: in vitro ADME, human; settings: both sexes, human, pooled human liver microsomes, pH 7.4; HLM; read-out: CLint attributed to FMO3
Description: as §1, §2, §3, §4

CYP3A4 = test: as above; type: in vitro ADME, human; settings: both sexes, human, pooled human liver microsomes, pH 7.4; HLM; read-out: CLint attributed to CYP3A4
Description: as §1, §2, §3, §4

human liver microsomes = test: as above; type: in vitro ADME; settings: metabolite formation kinetics
Description: as §1, §2, §3, §4

[5] = Human ADME study: safety assessments; type: in vivo; settings: single oral 600 mg
From the text: Safety analysis included monitoring and recording of all adverse events, laboratory tests (ophthalmologic exam, hematology, blood chemistry, and urinalysis), vital signs, electrocardiogram, and physical examination.

[6] = Beagle, 0.5 mg/kg, dog m (3), po, 0.5 mg base/kg
[7] = Beagle, 5 mg/kg, dog m (3), po, 5.0 mg base/kg
[8] = Beagle, dog m (4), po, 18.9 mg base/kg

Q: For `CN(C)C(=O)c1cc2cnc(Nc3ccc(N4CCNCC4)cn3)nc2n1C1CCCC1` [ribociclib, Ribociclib], which Cmax [1, 6] is on record?
A: The Cmax was 0.0104 µg/mL.

Q: What about the bioavailability [1, 6] of the same compound?
A: The bioavailability was 64%.

Q: What about the AUC(0-t) ([1]; Beagle, 0.5 mg/kg, dog m (3), po, 0.5 mg base/kg, AUC interval 24 h) of the same compound?
A: The AUC(0-t) was 0.155 µg·h/mL.

Q: And the Cmax [1, 7]?
A: The Cmax was 0.206 µg/mL.

Q: What about the Tmax [1, 7] of the same compound?
A: The Tmax was 1 h.

Q: And the AUC(0-t) ([1]; Beagle, 5 mg/kg, dog m (3), po, 5.0 mg base/kg, AUC interval 168 h)?
A: Its AUC(0-t) is 4.52 µg·h/mL.

Q: And the half-life [1, 7]?
A: Its half-life is 38.8 h.

Q: What about the Cmax [1, 8] of the same compound?
A: Its Cmax is 1.22 µg/mL.

Q: And the Tmax [1, 8]?
A: The Tmax was 1 h.

Q: What about the bioavailability [1, 8] of the same compound?
A: The bioavailability was 87%.

Q: And the AUC(0-t) ([1]; Beagle, dog m (4), po, 18.9 mg base/kg, AUC interval 48 h)?
A: Its AUC(0-t) is 21.1 µg·h/mL.

Q: And the half-life [1, 8]?
A: Its half-life is 12.6 h.

Q: What about the AUC(0-t) ([1]; Beagle, iv, 0.2 mg/kg, dog m (3), 0.2 mg base/kg, AUC interval 24 h) of the same compound?
A: The AUC(0-t) was 0.105 µg·h/mL.

Q: And the clearance ([1]; iv, dog m (3), 0.2 mg base/kg)?
A: The clearance was 1.9 L/h/kg.

Q: And the Vd ([1]; iv, dog m (3), i.v., 0.2 mg base/kg, read-out: Vss)?
A: Its Vd is 27.9 L/kg.

Q: And the half-life ([1]; iv, dog m (3), i.v., 0.2 mg base/kg)?
A: The half-life was 18.1 h.

Q: What about the “Excretion (% of dose), Feces” value [2] of the same compound?
A: The value was 17.3 % of dose.

Q: And the “AUC0-48h, % of total [14C]-AUC0-48” value [3]?
A: Its value is “approximately 43.5%”.

Q: And the “AUC0-48h, % of total [14C]-AUC0-48” value ([3]; listed as Ribociclib)?
A: The value was 43.5%.

Q: And the microsomal CLint [4]?
A: Its microsomal CLint is 31.5 µL/min/mg.

Q: And the microsomal CLint (FMO3)?
A: Its microsomal CLint is 8.19 µL/min/mg.

Q: What about the microsomal CLint (CYP3A4) of the same compound?
A: Its microsomal CLint is 23.3 µL/min/mg.

Q: And the “fm (Rel. Clint), CYP3A4 share of oxidative metabolism in HLM” value (human liver microsomes)?
A: Its value is 74%.

Q: And the “fm (Rel. Clint), FMO3 / hepatic FMO share of oxidative metabolism in HLM” value (human liver microsomes)?
A: The value was 26%.

Q: What about the “abdominal discomfort, share of subjects” value ([5]; 2 subjects of six) of the same compound?
A: Its value is 33.3%.

Q: What about the “discontinuation due to an AE” value [5] of the same compound?
A: The value was “no subjects discontinued”.

Q: What about the “serious adverse events (SAEs)” value [5] of the same compound?
A: The value was “No serious adverse events”.

Q: And the “severity of all AEs” value [5]?
A: The value was “grade 1”.

Q: And the “subjects with an AE suspected to be related to the study drug (headache)” value [5]?
A: The value was “one subject”.

Q: And the “subjects who experienced at least one adverse event (AE)” value ([5]; six healthy male subjects)?
A: The value was “Five”.
